# Source: a melting point compilation (Tetko et al.; mined from patent text by program, amines drawn as free bases though some values may be those of a salt)
row,Compound,melting point
1,O=C(NC[C@H]1CN(c2cc(F)c(N3CCC(n4nccn4)CC3)c(F)c2)C(=O)O1)C(F)F,254 to 255 °C
2,N#Cc1cc(N)n(-c2c(Cl)cc(C(F)(F)F)cc2Cl)n1,117 to 118 °C
3,CC(=O)C1=CCC2C3CCC4CC=CCC4(C)C3CCC12C (stereo unspecified),143 to 145 °C
4,CSc1nnc(C(N)(c2ccc(Cl)cc2)c2ccc3c(c2)c(-c2cccc(Cl)c2)nc2nnnn23)n1C (stereo unspecified),150 °C
5,CC1(C)CC(=Cc2nc3cc(O)ccc3o2)CC(C)(C)C1,160 to 162 °C
6,OCCOc1ccc(-c2nc(-c3ccc(Cl)cc3)nc(-c3ccc(OCCO)cc3O)n2)c(O)c1,149 to 150 °C
7,CCCCCCCCCCCCCCCCCCOc1cc(N)cc(N(CC(=O)O)CC(=O)O)c1,185 to 195 °C
8,COCCOc1ccc(C=O)cc1O,74 to 75 °C
9,COc1ccc(C(O)CNC(C)Cc2ccc(OCCO)cc2)cc1F (stereo unspecified),112 to 115 °C
10,CC1=C(C(=O)OCC2CC2)C(c2ccccc2C(F)(F)F)c2c(ccnc2OC(C)C)N1 (stereo unspecified),112 to 114 °C
11,O=C(O)C12CC=CCC1CSc1ccccc12 (stereo unspecified),152 to 155 °C
12,CONC(=O)Nc1ccc(-c2sc3c(c2CN(C)C(C)c2ccccn2)c(=O)n(-c2ccccn2)c(=O)n3Cc2c(F)cccc2F)cc1 (stereo unspecified),143 to 144 °C
13,CCCNS(=O)(=O)c1cccc(C)c1C#N,74 to 77 °C
14,COC(=O)Cc1ccc(C(=O)OC)cn1,56 to 57 °C
15,N#Cc1ccc(C(=O)Nc2cccc(C(=O)O)c2)cc1,267 °C
16,Cc1cn(N)c(=O)n1C,115 to 119 °C
17,O=S(=O)(Nc1cccc(/C=C/c2ccccc2)c1)C(F)(F)F,62 to 64 °C
18,COP(=O)(Cc1ccc2ccc(CP(=O)(OC)OC)cc2c1)OC,87 to 88 °C
19,CC(=O)Oc1c(C(=O)N2CCc3ccccc32)c(=O)n2c3c(cc(N)cc13)OCC2,220 to 225 °C
20,C#C[C@@H](C)N(O)C(N)=O,120 to 123 °C
21,Cc1ccc(F)cc1C(=O)Nc1ccc(C(=O)N2Cc3cccn3-c3ccccc32)cn1,190 to 196 °C
22,N#CCCn1[nH]c(C#N)cc1=O,162 to 164 °C

row,Compound,melting point
1,Clc1ccc2[nH]c3c(Cl)nc4ccccc4c3c2c1,250 °C
2,COc1ccc(C(=O)C2CCN(C3CN(C(=O)c4ccccc4)CCC3O)CC2)cc1 (stereo unspecified),114 to 115 °C
3,CCC(CC)N1CCN(C)c2c1cc(C)nc2Oc1c(C)cc(C)cc1C,78 to 80 °C
4,CC(C)(C)OC(=O)NCCCCC(N)C(=O)Nc1ccccc1 (stereo unspecified),72 to 74.5 °C
5,Cc1cc(C(=O)Cl)ccc1[N+](=O)[O-],29 to 30 °C
6,CCN1CCCC1CNC(=O)c1cc(S(=O)(=O)CC)cc2c1OCCO2 (stereo unspecified),111 to 122 °C
7,CC(C)(C)c1cc(CN2CCN(c3ccc(N)cc3)CC2)cc(C(C)(C)C)c1O,152 to 154 °C
8,COC1=CC(Cl)(OC)NC(C(O)CC(=O)Nc2ccccc2)=N1 (stereo unspecified),121 to 123 °C
9,COC=C(C(=O)OC)n1ccc2ccc(-c3csc(-c4ccccc4)n3)cc21,145 to 146 °C
10,CC(C)(C)c1ccc(CC[C@H](O)CCCC2CCCCC2)cc1NC(=O)CC1c2ccccc2Oc2ccccc21,128 to 129 °C
11,Cc1ccc(-n2nc(C)c(CC(=O)O)c2C)cc1,119 to 121 °C
12,O=C1CCC2(CN1)C(=O)C(=O)c1ccccc12 (stereo unspecified),227 to 228 °C
13,CN(C)c1ccc(C=O)c([N+](=O)[O-])c1,115 to 116 °C
14,CCCc1c(OCCCOc2ccc3c(c2CCC)OC(C(C)=O)(C(=O)OC)CC3)ccc(C(C)=O)c1O (stereo unspecified),58 to 59 °C
15,CC(=O)OC1CC2(C)C(=O)CCC2C2C(C)CC3=CC(=O)CCC3C12 (stereo unspecified),183 °C
16,Cc1ccccc1CC(=NC#N)NC(NC(=O)Cc1ccc(Cl)cc1)C(C)(C)C (stereo unspecified),183 to 185 °C
17,CN1CC(NC(=S)NC(=O)c2ccccc2)CC2c3cccc4[nH]cc(c34)CC21 (stereo unspecified),224 to 225 °C
18,O=COC1(N=NC2(OC=O)CCCCC2)CCCCC1,97 to 99.5 °C
19,CNC(=O)[C@H]1CN(c2ccc3c(c2)sc(=O)n3C(C)C)C(=O)O1,172 to 174 °C
20,N#CSc1ccc(-c2nc3ccc(N)c(SC#N)c3nc2-c2ccco2)o1,185 to 187 °C
21,Fc1ccc(-c2nc(=S)n(Cc3ccccc3)[nH]2)c(Cl)c1,135 to 136 °C
22,CNS(=O)(=O)c1cn(C)c2cc(C(F)(F)F)ccc2c1=O,218 to 219 °C

row,Compound,melting point
1,CN(C)c1ncc(-c2nc3cccc(CO)c3o2)cn1,212 to 215 °C
2,CS(=O)(=O)C(c1ccc(Cl)cc1)c1ccc(Cl)cc1,93 to 94.5 °C
3,CN1C(=O)C(NC(=S)Nc2ccccc2)N=C(c2ccccc2)c2ccccc21 (stereo unspecified),209 to 211 °C
4,Cn1cc(C2=C(c3cn(CCCS)c4ccccc34)C(=O)NC2=O)c2ccccc21,155 to 157 °C
5,O=c1cc2c(nn1Cc1ccc(Cl)cc1)-c1ccccc1S(=O)CC2 (stereo unspecified),207 to 209 °C
6,O=C1Nc2ccccc2C1CCCCN1CC=C(c2ccc(Cl)cc2)CC1 (stereo unspecified),122 to 124 °C
7,O=c1[nH]c2c(c3nc(-c4ccccc4F)nn13)CCCCC2,257 to 259 °C
8,CCCCCCCC(=O)c1ccc(CCI)cc1,36.5 °C
9,COc1ccc(C2(C#Cc3ccc(C(=O)O)cc3)CCC(=O)CC2)cc1OC1CCCC1,170 to 171 °C
10,O=C(CBr)Nc1ccccc1C(=O)O,165 to 168 °C
11,CC1(C)C(c2ccncc2)=Nc2ccc(-c3ccc(=O)[nH]n3)cc21,305 to 307 °C
12,C=CC(=O)Oc1ccc(Cl)c2c1Sc1ccccc1C2,164 to 165 °C
13,CC(C)CC(=O)Nc1cccc(-c2ccnc3c(-c4cccc(C(F)(F)F)c4)cnn23)c1,170 to 173 °C
14,CN(C)c1ccc(-c2ccc3c(c2)CC[C@H]2N(C)C(=O)CC[C@]32C)cc1,197 to 202 °C
15,CCOC(=O)Cc1ccc(OCCCN2CCC(C(O)(c3ccc(F)cc3)c3ccc(F)cc3)CC2)c(OC)c1,110 to 112 °C
16,CC1(C)CC(=C(c2ccc(O)cc2)c2ccc(S(C)(=O)=O)cc2)CC(C)(C)C1,149 to 150 °C
17,C#CCNC(=O)C(c1ccccc1)c1ccccc1,131 °C
18,CCCCn1c2ccc(C#N)cc2c2cc(C#N)ccc21,215 to 217 °C
19,CN(C)C(=O)c1ccc(C(=O)CS(=O)(=O)C(c2ccc(Cl)cc2)c2ccc(Cl)cc2)s1,192 to 194 °C
20,CC(=O)Nc1ccccc1-c1ccn[nH]c1=O,235 to 236 °C
21,CCC(C)c1ccc(N(Cc2ccccc2)C(=N)N)cc1 (stereo unspecified),65 to 67 °C
22,NC(CCCCCCCCC(N)=NO)=NO,182 °C

# The next lines start with the values.
row,melting point,Compound
1,160 to 164 °C,O=C(O)C(=O)CC(=O)c1ccc(OCc2ccccc2)cc1OCc1ccccc1
2,83 to 84 °C,O=C(O)CCCOc1cccc(C2CCCCC2)c1
3,92 to 100 °C,CNC(=O)c1ccccc1Nc1nc(Nc2cc3c(cc2OC)CC(=O)N(CCCN2CCOCC2)CC3)ncc1Cl
4,94 to 95.5 °C,CCON=C(CC)C1=C(OC(=O)c2ccccc2)CC(c2c(C)cc(C)cc2C)CC1=O (stereo unspecified)
5,75 to 77 °C,COc1cccc(C(=O)Nc2nc(C)c(C(=O)NCc3ccccc3)s2)c1
6,67 to 70 °C,CC(C)n1nc2ccc(Cl)c([N+](=O)[O-])c2n1
7,106 °C,COC(=O)Nc1ccc(OC(=O)OC)cc1I
8,68 to 71 °C,CC(C)(Sc1cc(C(C)(C)C)c(O)c(C(C)(C)C)c1)Sc1cc(C(C)(C)C)c(OCCC[C@H](O)CO)c(C(C)(C)C)c1
9,169 °C,CNS(=O)(=O)c1ccc(N)c(C(=O)N2CCNCC2)c1
10,137 to 138 °C,COc1ccc(CN2C(=O)[C@H](NC(=O)COc3ccccc3)[C@@H]2c2ccccc2C2OCCO2)c(OC)c1 (relative stereo)
11,138 to 139 °C,O=C(c1ccco1)c1cnn2c1NCCC2
12,236 °C,COc1cc(NC(=O)Oc2ccccc2)ccc1S(=O)(=O)n1c(=O)n(C2CCCCC2)c2cc(Cl)ccc21
13,84 to 87 °C,COC(=O)C(N)CSCc1ccccc1 (stereo unspecified)
14,110 to 111 °C,N#Cc1cc(F)c(N)c(F)c1
15,137 to 138 °C,COC(=O)COc1ccc(C(=O)CC2CCN(c3ccncc3)CC2)cc1
16,168 °C,CCSc1ccc(NC(=S)NC(=O)OC)c(N)c1
17,73 to 77 °C,COc1ccc(C(C)C)cc1-c1cc(-c2nnnn2C2CCN(C(=O)OC(C)(C)C)C2)c(OCc2ccccc2)cc1OCc1ccccc1 (stereo unspecified)
18,77 to 80 °C,O=C(OCC(=O)c1ccccc1[N+](=O)[O-])c1ccccc1

row,melting point,Compound
1,226 to 228 °C,Cc1nc(NCCc2ccccc2)sc1-c1ccnc(Nc2ccc(N3CCOCC3)cc2)n1
2,130 to 131 °C,COC(=O)C[C@H](NC(c1ccccc1)(c1ccccc1)c1ccccc1)C(=O)C(=[N+]=[N-])C(=O)N(C)OC
3,158 to 161 °C,CC(C)(C)c1c(-c2ccc(S(C)(=O)=O)cc2)cnn(-c2ccc(F)c(F)c2)c1=O
4,50 to 51 °C,CCCCCCCCCCCCn1nnnc1Cc1ccccc1
5,110 to 112 °C,CCc1c(OC)cc(C2CN(C)CC/C2=C\C(=O)OC)cc1OC (stereo unspecified)
6,214 to 218 °C,CC(C)N1C(=S)NC(c2ccccc2)c2cc3c(cc21)OCO3 (stereo unspecified)
7,174 to 176 °C,CCNc1nc(Nc2ccccc2)ncc1CO
8,143 to 145 °C,Cc1ccc(C(O)c2nc3c(cc2C)CCCCC3)cc1 (stereo unspecified)
9,89 to 90 °C,Cc1c(C)c2c(c(C)c1O)C(CO)C(C)(C)O2 (stereo unspecified)
10,238 to 240 °C,CCCCCCCCCCCCCCCC(=O)Nc1cc(C(=O)O)ccc1C
11,228 to 233 °C,Cc1c(C)c(N2CCN(c3ccc(S(C)(=O)=O)cc3)CC2)c(C)c2c1OC(C)C2 (stereo unspecified)
12,123 °C,COC(=O)c1ccc(Cc2cc3cc(C(F)(F)F)ccc3n2S(=O)(=O)c2ccc(C(C)C)cc2)cc1
13,162 to 163 °C,CC(CCCC(C)(C)O)C1CCC2C3C=CC4=CC(=O)C5OC5C4(C)C3CCC12C (stereo unspecified)
14,85 to 87 °C,CC(=O)Oc1ccccc1C=C1CCCc2cc(C)cnc21
15,205 to 206 °C,Clc1ccc2c(c1)-c1[nH]ncc1CS2
16,242 to 245 °C,CC(C)=NNc1ccnc2c(NC(=O)c3c(Cl)cccc3Cl)cc(C)cc12
17,190 to 192 °C,Cc1nn(C)c2c(=O)n(C)c(C)nc12
